{"source": "patent US20260248882A1", "about": "“USE OF ANNEXIN A5 IN HAIR GROWTH, HAIR NURTURING, HAIR CARE, HAIR LOSS PREVENTION, AND HAIR LOSS TREATMENT, AND RELATED PRODUCTS AND PHARMACEUTICAL COMPOSITIONS” (SHANGHAI CELLEAF BIOTECHNOLOGY CO., LTD, priority 2023, published 2026)", "key": {"[1]": {"tested_on": "mouse androgenetic hair loss model", "test": "Hair growth observation in mouse androgenetic hair loss model (DHT-induced)", "format": "in vivo", "conditions": "C57BL/6 male mice, depilated back, FIG. 1", "protocol": "(§1) Experimental animals: C57BL/6 male mice, 5-7 weeks old, weighing around 20 g were housed in a 12 hour light/12 hour dark environment, with free access to food and water. The experiment set up control group (CTRL); model group (DHT); A5-Low group (treated with Annexin A5, injected once every three days); and A5-High group (treated with Annexin A5, injected once a day). Each group consists of 6 mice.\n(§2) Modeling and administration: Dihydrotestosterone (DHT) was used to induce the formation of the mouse androgenetic hair loss model. In addition to the control group, the other three groups of mice received subcutaneous injection of DHT solution (5 mg/mL) at the neck, 0.01 mL for each, for a total of 2 weeks. The control group was injected with an equal volume of physiological saline. After 2 weeks, all mice were shaved and their back hair was removed using a shaving knife. Then hair removal cream was used to further remove residual hair from the shaved area of the mice. After hair removal, both the control group and the model group were injected daily with […] of PBS in the hair removal area, divided into 10 injection points, with 20 μL per point. The A5-Low group received Annexin A5 treatment once every three days, while the A5-High group received Annexin A5 treatment once a day. […] The status of hair growth on the back of mice was observed every day and recorded by taking photos. […]"}, "[2]": {"tested_on": "Ki67 (cell proliferation marker)", "test": "Ki67 immunohistochemical staining of paraffin skin sections", "format": "in vivo, mouse", "conditions": "DHT model mice after Annexin A5 treatment; FIG. 3", "protocol": "as §1, §2"}, "[3]": {"tested_on": "mouse androgenetic hair loss model", "test": "Histological HE staining analysis of skin sections", "format": "in vivo", "conditions": "DHT model mice treated with Annexin A5 for 2 weeks, FIG. 2", "protocol": "as §1\nModeling and administration: Dihydrotestosterone (DHT) was used to induce the formation of the mouse androgenetic hair loss model. In addition to the control group, the other three groups of mice received subcutaneous injection of DHT solution (5 mg/mL) at the neck, 0.01 mL for each, for a total of 2 weeks. The control group was injected with an equal volume of physiological saline. After 2 weeks, all mice were shaved and their back hair was removed using a shaving knife. Then hair removal cream was used to further remove residual hair from the shaved area of the mice. After hair removal, both the control group and the model group were injected daily with […] of PBS in the hair removal area, divided into 10 injection points, with 20 μL per point. The A5-Low group received Annexin A5 treatment once every three days, while the A5-High group received Annexin A5 treatment once a day. The injection method was subcutaneous injection at 10 points in the hair removal area, with 20 μL of Annexin A5 at a concentration of 50 μg/mL injected at each point. The status of hair growth on the back of mice was observed every day and recorded by taking photos. Samples were collected after 16 days.\nTissue sampling: After drug treatment, mice were euthanized by cervical dislocation. […]\nSections were taken for xylene dewaxing and gradient ethanol hydration, and then hematoxylin and eosin staining was performed. […] The next day, an optical microscope was used to observe and record, and the number of hair follicles was statistical analyzed."}, "androgen receptor (AR)": {"tested_on": "androgen receptor (AR)", "test": "Western Blot of androgen receptor expression in isolated dermal papillae", "format": "in vivo, mouse", "conditions": "DHT model mice, A5-Low/A5 High groups, FIG. 4", "protocol": "as §1\n(§3) Modeling and administration: Dihydrotestosterone (DHT) was used to induce the formation of the mouse androgenetic hair loss model. In addition to the control group, the other three groups of mice received subcutaneous injection of DHT solution (5 mg/mL) at the neck, 0.01 mL for each, for a total of 2 weeks. The control group was injected with an equal volume of physiological saline. After 2 weeks, all mice were shaved and their back hair was removed using a shaving knife. […] The status of hair growth on the back of mice was observed every day and recorded by taking photos. […]\n(§4) Sample Treatment: After euthanizing the mice, 1 cm^2 skin tissue was collected, and the hair on the skin surface was removed with a scissors as much as possible. […] The supernatant was collected by high-speed centrifugation, the protein concentration was determined using BCA method, and protein samples were prepared according to Western Blot requirements. […]"}, "[4]": {"tested_on": "CD31 (vascular angiogenesis marker)", "test": "CD31 immunohistochemical staining of paraffin skin sections", "format": "in vivo, mouse", "conditions": "DHT model mice after Annexin A5 treatment; FIG. 3", "protocol": "as §1, §2"}, "[5]": {"tested_on": "transforming growth factor β1 (TGF β-1)", "test": "Western Blot of TGF-β1 expression in isolated dermal papillae", "format": "in vivo, mouse", "conditions": "DHT model mice, A5-Low/A5 High groups, FIG. 4", "protocol": "as §1, §3, §4"}}, "data": [{"substance": "Annexin A5: calcium phospholipid binding protein composed of a single polypeptide chain of 319 amino acids", "values": [{"measurement": "entry into anagen phase (skin turning black)", "setting": "[1]; A5-Low and A5-High groups", "result": "entered the anagen phase earlier"}, {"measurement": "hair growth ability", "setting": "[1]; subcutaneous Annexin A5 50 μg/mL, 10 points x 20 μL, once every three days or once a day, observed 16 days", "result": "significantly enhanced hair growth ability"}, {"measurement": "proliferation and survival ability of cells in the hair follicles (Ki67)", "setting": "[2]", "result": "improved"}, {"measurement": "dermal thickness", "setting": "[3]", "result": "did not affect"}, {"measurement": "follicle size", "setting": "[3]", "result": "did not affect"}, {"measurement": "number of hair follicle dermal papillae", "setting": "[3]", "result": "did not affect"}, {"measurement": "AR expression in dermal papillae", "setting": "androgen receptor (AR)", "result": "significant inhibition"}, {"measurement": "number of capillaries around the dermal papillae (CD31)", "setting": "[4]", "result": "increased"}, {"measurement": "TGF-β1 expression in dermal papillae", "setting": "[5]", "result": "significant inhibition"}]}]}
